Patent US9688613B2 (Jiva Pharma, Inc., priority 2015, dated 2017)

System: GABA-A receptors
Assay: Displacement of [3H] muscimol from GABA-A receptors
Assay type: binding
Procedure: Muscimol is the principal psychoactive constituent of Amanita muscaria and related species of mushroom.
These tests were performed using the procedure described by Tomasz Plech et. al., Studies on anticonvulsant activity of 4-alkyl-1,2,4-triazole-3-thiones and their effect on GABAergic system; European J. of Medicinal Chem. 2014, 86, 690-699.

SMILES | % of [3H]-MUSCIMOL inhibition (LOG OF MOLAR CONC. −4) [%] | % of [3H]-MUSCIMOL inhibition (LOG OF MOLAR CONC. −5) [%]
CC/C=C\C/C=C\C/C=C\C/C=C\C/C=C\C/C=C\CCC(CN)CC(=O)O (centres unmarked) [Example 1, 3-Aminomethyl-tetracosa-6,9,12,15,18,21-hexaenoic Acid] | 10 | 0
CC/C=C\C/C=C\C/C=C\C/C=C\C/C=C\CCCC(CN)CC(=O)O (centres unmarked) [Example 2, 3-Aminomethyl-docosa-7,10,13,16,19-pentaenoic Acid] | 15 | 10
CC/C=C\C/C=C\C/C=C\CCCCCCCC(CN)CC(=O)O (centres unmarked) [Example 3, 3-Aminomethyl-eicosa-11,14,17-trienoic Acid] | 8 | 0
CC(C)C[C@H](CN)CC(=O)O [Pregabalin, S-isobutylgaba, reference compound] | 12 | 0
